Experiments:
Assay type in all cases: ADME
[1] = (§1) The drug is tested on Actinomyces graevenitzii strain: DSM15540 for biotransformation under microaerobic condition. The drug concentrations were measured over 6 timepoints collected between 0 and 12 hours of incubation by liquid-chromatography-coupled mass spectrometry (LC–MS); parameters: dose 5 uM, timepoint 0, 1.5, 3, 6, 9, 12 hours; conditions: 5 µM
[2] = The drug is tested on Streptococcus mitis strain: DSM12643 for biotransformation under microaerobic condition. The drug concentrations were measured over 6 timepoints collected between 0 and 12 hours of incubation by liquid-chromatography-coupled mass spectrometry (LC–MS); parameters: dose 5 uM, timepoint 0, 1.5, 3, 6, 9, 12 hours; conditions: 5 µM
[3] = (§2) The drug is tested on Capnocytophaga ochracea strain: DSM7271 for biotransformation under anaerobic condition. The drug concentrations were measured over 6 timepoints collected between 0 and 12 hours of incubation by liquid-chromatography-coupled mass spectrometry (LC–MS); parameters: dose 5 uM, timepoint 0, 1.5, 3, 6, 9, 12 hours; conditions: 5 µM
[4] = The drug is tested on Lactobacillus reuteri strain: DSM20016 for biotransformation under microaerobic condition. The drug concentrations were measured over 6 timepoints collected between 0 and 12 hours of incubation by liquid-chromatography-coupled mass spectrometry (LC–MS); parameters: dose 5 uM, timepoint 0, 1.5, 3, 6, 9, 12 hours; conditions: limosilactobacillus reuteri, 5 µM
[5] = as §1, with “the gut metagenome community of A-05 with ENA study accession number: PRJEB31790” for “Actinomyces graevenitzii strain: DSM15540”, “7” for “6”; parameters: dose 5 uM, timepoint 0, 0.75, 1.5, 3, 6, 9, 12 hours; conditions: 5 µM
[6] = The drug is tested on Lactobacillus reuteri strain: DSM20016 for biotransformation under anaerobic condition. The drug concentrations were measured over 6 timepoints collected between 0 and 12 hours of incubation by liquid-chromatography-coupled mass spectrometry (LC–MS); parameters: dose 5 uM, timepoint 0, 1.5, 3, 6, 9, 12 hours; conditions: limosilactobacillus reuteri, 5 µM
[7] = The drug is tested on Streptococcus sanguinis strain: DSM20567 for biotransformation under anaerobic condition. The drug concentrations were measured over 6 timepoints collected between 0 and 12 hours of incubation by liquid-chromatography-coupled mass spectrometry (LC–MS); parameters: dose 5 uM, timepoint 0, 1.5, 3, 6, 9, 12 hours; conditions: 5 µM
[8] = The drug is tested on Lactobacillus paracasei strain: ATCC27092 for biotransformation under microaerobic condition. The drug concentrations were measured over 6 timepoints collected between 0 and 12 hours of incubation by liquid-chromatography-coupled mass spectrometry (LC–MS); parameters: dose 5 uM, timepoint 0, 1.5, 3, 6, 9, 12 hours; conditions: lacticaseibacillus paracasei, 5 µM
[9] = as §1, with “the gut metagenome community of A-08 with ENA study accession number: PRJEB31790” for “Actinomyces graevenitzii strain: DSM15540”, “7” for “6”; parameters: dose 5 uM, timepoint 0, 0.75, 1.5, 3, 6, 9, 12 hours; conditions: 5 µM
[10] = The drug is tested on Actinomyces naeslundi strain: DSM43013 for biotransformation under microaerobic condition. The drug concentrations were measured over 6 timepoints collected between 0 and 12 hours of incubation by liquid-chromatography-coupled mass spectrometry (LC–MS); parameters: dose 5 uM, timepoint 0, 1.5, 3, 6, 9, 12 hours; conditions: actinomyces naeslundii, 5 µM
[11] = as §2, with “the gut metagenome community of P-01 with ENA study accession number: PRJEB31790” for “Capnocytophaga ochracea strain: DSM7271”, “7” for “6”; parameters: dose 5 uM, timepoint 0, 0.75, 1.5, 3, 6, 9, 12 hours; conditions: 5 µM
[12] = as §1, with “the gut metagenome community of T-05 with ENA study accession number: PRJEB31790” for “Actinomyces graevenitzii strain: DSM15540”, “7” for “6”; parameters: dose 5 uM, timepoint 0, 0.75, 1.5, 3, 6, 9, 12 hours; conditions: 5 µM
[13] = as §2, with “the gut metagenome community of A-07 with ENA study accession number: PRJEB31790” for “Capnocytophaga ochracea strain: DSM7271”, “7” for “6”; parameters: dose 5 uM, timepoint 0, 0.75, 1.5, 3, 6, 9, 12 hours; conditions: 5 µM
[14] = The drug is tested on Escherichia coli strain: DSM27469 for biotransformation under microaerobic condition. The drug concentrations were measured over 6 timepoints collected between 0 and 12 hours of incubation by liquid-chromatography-coupled mass spectrometry (LC–MS); parameters: dose 5 uM, timepoint 0, 1.5, 3, 6, 9, 12 hours; conditions: 5 µM
[15] = as §2, with “the gut metagenome community of A-01 with ENA study accession number: PRJEB31790” for “Capnocytophaga ochracea strain: DSM7271”, “7” for “6”; parameters: dose 5 uM, timepoint 0, 0.75, 1.5, 3, 6, 9, 12 hours; conditions: 5 µM
[16] = as §2, with “the gut metagenome community of T-02 with ENA study accession number: PRJEB31790” for “Capnocytophaga ochracea strain: DSM7271”, “7” for “6”; parameters: dose 5 uM, timepoint 0, 0.75, 1.5, 3, 6, 9, 12 hours; conditions: 5 µM
[17] = as §2, with “the gut metagenome community of A-05 with ENA study accession number: PRJEB31790” for “Capnocytophaga ochracea strain: DSM7271”, “7” for “6”; parameters: dose 5 uM, timepoint 0, 0.75, 1.5, 3, 6, 9, 12 hours; conditions: 5 µM
[18] = The drug is tested on Bifidobacterium adolescentis strain: DSM20083 for biotransformation under anaerobic condition. The drug concentrations were measured over 6 timepoints collected between 0 and 12 hours of incubation by liquid-chromatography-coupled mass spectrometry (LC–MS); parameters: dose 5 uM, timepoint 0, 1.5, 3, 6, 9, 12 hours; conditions: 5 µM
[19] = The drug is tested on Lactobacillus gasseri strain: DSM20243 for biotransformation under anaerobic condition. The drug concentrations were measured over 6 timepoints collected between 0 and 12 hours of incubation by liquid-chromatography-coupled mass spectrometry (LC–MS); parameters: dose 5 uM, timepoint 0, 1.5, 3, 6, 9, 12 hours; conditions: 5 µM
[20] = The drug is tested on Gemella morbillorum strain: DSM20572 for biotransformation under anaerobic condition. The drug concentrations were measured over 6 timepoints collected between 0 and 12 hours of incubation by liquid-chromatography-coupled mass spectrometry (LC–MS); parameters: dose 5 uM, timepoint 0, 1.5, 3, 6, 9, 12 hours; conditions: 5 µM
[21] = The drug is tested on Faecalibacterium prausnitzii strain: DSM17677 for biotransformation under anaerobic condition. The drug concentrations were measured over 6 timepoints collected between 0 and 12 hours of incubation by liquid-chromatography-coupled mass spectrometry (LC–MS); parameters: dose 5 uM, timepoint 0, 1.5, 3, 6, 9, 12 hours; conditions: faecalibacterium duncaniae, 5 µM
[22] = as §1, with “the gut metagenome community of A-06 with ENA study accession number: PRJEB31790” for “Actinomyces graevenitzii strain: DSM15540”, “7” for “6”; parameters: dose 5 uM, timepoint 0, 0.75, 1.5, 3, 6, 9, 12 hours; conditions: 5 µM
[23] = The drug is tested on Streptococcus salivarius strain: DSM20560 for biotransformation under anaerobic condition. The drug concentrations were measured over 6 timepoints collected between 0 and 12 hours of incubation by liquid-chromatography-coupled mass spectrometry (LC–MS); parameters: dose 5 uM, timepoint 0, 1.5, 3, 6, 9, 12 hours; conditions: 5 µM
[24] = as §1, with “the gut metagenome community of T-02 with ENA study accession number: PRJEB31790” for “Actinomyces graevenitzii strain: DSM15540”, “7” for “6”; parameters: dose 5 uM, timepoint 0, 0.75, 1.5, 3, 6, 9, 12 hours; conditions: 5 µM
[25] = as §1, with “the gut metagenome community of A-01 with ENA study accession number: PRJEB31790” for “Actinomyces graevenitzii strain: DSM15540”, “7” for “6”; parameters: dose 5 uM, timepoint 0, 0.75, 1.5, 3, 6, 9, 12 hours; conditions: 5 µM
[26] = The drug is tested on Lactobacillus paracasei strain: ATCC27092 for biotransformation under anaerobic condition. The drug concentrations were measured over 6 timepoints collected between 0 and 12 hours of incubation by liquid-chromatography-coupled mass spectrometry (LC–MS); parameters: dose 5 uM, timepoint 0, 1.5, 3, 6, 9, 12 hours; conditions: lacticaseibacillus paracasei, 5 µM
[27] = as §2, with “the gut metagenome community of P-04 with ENA study accession number: PRJEB31790” for “Capnocytophaga ochracea strain: DSM7271”, “7” for “6”; parameters: dose 5 uM, timepoint 0, 0.75, 1.5, 3, 6, 9, 12 hours; conditions: 5 µM
[28] = as §2, with “the gut metagenome community of A-02 with ENA study accession number: PRJEB31790” for “Capnocytophaga ochracea strain: DSM7271”, “7” for “6”; parameters: dose 5 uM, timepoint 0, 0.75, 1.5, 3, 6, 9, 12 hours; conditions: 5 µM
[29] = as §2, with “the gut metagenome community of T-03 with ENA study accession number: PRJEB31790” for “Capnocytophaga ochracea strain: DSM7271”, “7” for “6”; parameters: dose 5 uM, timepoint 0, 0.75, 1.5, 3, 6, 9, 12 hours; conditions: 5 µM
[30] = The drug is tested on Streptococcus anginosus strain: DSM20563 for biotransformation under microaerobic condition. The drug concentrations were measured over 6 timepoints collected between 0 and 12 hours of incubation by liquid-chromatography-coupled mass spectrometry (LC–MS); parameters: dose 5 uM, timepoint 0, 1.5, 3, 6, 9, 12 hours; conditions: 5 µM
[31] = as §2, with “the gut metagenome community of P-02 with ENA study accession number: PRJEB31790” for “Capnocytophaga ochracea strain: DSM7271”, “7” for “6”; parameters: dose 5 uM, timepoint 0, 0.75, 1.5, 3, 6, 9, 12 hours; conditions: 5 µM

Structure (SMILES) | Bacterial Biotransformation [1] | Bacterial Biotransformation [2] | Bacterial Biotransformation [3] | Bacterial Biotransformation [4] | Bacterial Biotransformation [5] | Bacterial Biotransformation [6] | Bacterial Biotransformation [7] | Bacterial Biotransformation [8] | Bacterial Biotransformation [9] | Bacterial Biotransformation [10] | Bacterial Biotransformation [11] | Bacterial Biotransformation [12] | Bacterial Biotransformation [13] | Bacterial Biotransformation [14] | Bacterial Biotransformation [15] | Bacterial Biotransformation [16] | Bacterial Biotransformation [17] | Bacterial Biotransformation [18] | Bacterial Biotransformation [19] | Bacterial Biotransformation [20] | further results
CNC(=C[N+](=O)[O-])NCCSCc1ccc(CN(C)C)o1 [RANITIDINE] | Compound NOT metabolized | Compound metabolized | Compound NOT metabolized | Compound NOT metabolized | Compound NOT metabolized | Compound NOT metabolized | Compound NOT metabolized | Compound NOT metabolized | Compound metabolized | Compound NOT metabolized | Compound metabolized | Compound NOT metabolized | Compound NOT metabolized | Compound NOT metabolized | Compound NOT metabolized | Compound NOT metabolized | Compound NOT metabolized | Compound NOT metabolized | Compound NOT metabolized | Compound NOT metabolized | Bacterial Biotransformation [21]: Compound NOT metabolized; Bacterial Biotransformation [22]: Compound metabolized; Bacterial Biotransformation [23]: Compound NOT metabolized; Bacterial Biotransformation [24]: Compound NOT metabolized; Bacterial Biotransformation [25]: Compound NOT metabolized; Bacterial Biotransformation [26]: Compound NOT metabolized; Bacterial Biotransformation [27]: Compound NOT metabolized; Bacterial Biotransformation [28]: Compound metabolized; Bacterial Biotransformation [29]: Compound NOT metabolized; Bacterial Biotransformation [30]: Compound NOT metabolized; Bacterial Biotransformation [31]: Compound metabolized
CCOC(=O)[C@H](CCc1ccccc1)N[C@@H](C)C(=O)N1[C@H](C(=O)O)C[C@@H]2CCC[C@@H]21 | Compound NOT metabolized | Compound NOT metabolized | Compound NOT metabolized | Compound NOT metabolized | Compound NOT metabolized | Compound NOT metabolized | Compound NOT metabolized | Compound NOT metabolized | Compound NOT metabolized | Compound NOT metabolized | Compound NOT metabolized | Compound NOT metabolized | Compound NOT metabolized | Compound NOT metabolized | Compound NOT metabolized | Compound NOT metabolized | Compound NOT metabolized | Compound NOT metabolized | Compound NOT metabolized | Compound NOT metabolized | Bacterial Biotransformation [21]: Compound NOT metabolized; Bacterial Biotransformation [22]: Compound NOT metabolized; Bacterial Biotransformation [23]: Compound NOT metabolized; Bacterial Biotransformation [24]: Compound NOT metabolized; Bacterial Biotransformation [25]: Compound NOT metabolized; Bacterial Biotransformation [26]: Compound NOT metabolized; Bacterial Biotransformation [27]: Compound NOT metabolized; Bacterial Biotransformation [28]: Compound NOT metabolized; Bacterial Biotransformation [29]: Compound NOT metabolized; Bacterial Biotransformation [30]: Compound NOT metabolized; Bacterial Biotransformation [31]: Compound NOT metabolized
C=CC[C@@H]1/C=C(\C)C[C@H](C)C[C@H](OC)[C@H]2O[C@@](O)(C(=O)C(=O)N3CCCC[C@H]3C(=O)O[C@H](/C(C)=C/[C@@H]3CC[C@@H](O)[C@H](OC)C3)[C@H](C)[C@@H](O)CC1=O)[C@H](C)C[C@@H]2OC.O [TACROLIMUS] | Compound NOT metabolized | Compound NOT metabolized | Compound NOT metabolized | Compound NOT metabolized | Compound metabolized | Compound NOT metabolized | Compound NOT metabolized | Compound NOT metabolized | Compound metabolized | Compound NOT metabolized | Compound NOT metabolized | Compound metabolized | Compound metabolized | Compound NOT metabolized | Compound NOT metabolized | Compound metabolized | Compound NOT metabolized | Compound NOT metabolized | Compound NOT metabolized | Compound NOT metabolized | Bacterial Biotransformation [21]: Compound NOT metabolized; Bacterial Biotransformation [22]: Compound metabolized; Bacterial Biotransformation [23]: Compound NOT metabolized; Bacterial Biotransformation [24]: Compound metabolized; Bacterial Biotransformation [25]: Compound NOT metabolized; Bacterial Biotransformation [26]: Compound NOT metabolized; Bacterial Biotransformation [27]: Compound NOT metabolized; Bacterial Biotransformation [28]: Compound NOT metabolized; Bacterial Biotransformation [29]: Compound NOT metabolized; Bacterial Biotransformation [30]: Compound NOT metabolized; Bacterial Biotransformation [31]: Compound NOT metabolized

Source: ChEMBL document CHEMBL5724806, “Unraveling interindividual differences and functional consequences of gut microbial metabolism of immunosuppressants” (2024)
